Source: patent US20020042437A1 (priority 1997, published 2002)
Like-named read-outs stand apart in the source and are kept apart here.

Tested on: Phytophthora infestans
Format: in vivo
Settings: single active ingredient, tomato leaves, infected next day, evaluated after 6 days

| SMILES | Efficacy in % of the untreated control (0.25 ppm in the spray liquor) [%] | Efficacy in % of the untreated control (0.5 ppm in the spray liquor) [%] | Efficacy in % of the untreated control (1 ppm in the spray liquor) [%] |
| --- | --- | --- | --- |
| CCC(C)(NC(=O)c1cc(Cl)c(C)c(Cl)c1)C(=O)CCl (stereo not drawn) [Compound II.1] | 0 | 20 | – |
| CO/N=C(/C(=O)OC)c1ccccc1COc1ccccc1C [Ia] | 0 | 0 | 0 |
| CNC(=O)/C(=N/OC)c1ccccc1COc1cc(C)ccc1C [Ib] | 0 | – | – |
